Here are results for eleven molecules from US8063018B2, “Bivalent thrombin binding molecules comprising linkers” (National Research Council of Canada, priority 2004, dated 2011).

Where “and” joins values, the source holds several entries; their conditions need not be identical. Equal values may be shown once. Read-outs that look alike come from different tables or passages of the source. No end group written: not given here.

The nature of experiment [1]: Calcium binding followed by proton NMR. The conditions noted are these: CaCl2 titration, pH 5.5. Here is the method: Looking at the results in FIG. 6, panels a, b, c, d show changes in the proton NMR spectra of Ac-[…]NH2 (SEQ. ID. NO. 109) (P3230, panels a, b) and Ac-[…]NH2 (SEQ. ID. NO. 110) (P3231, panels c, d) upon the addition to the initial ˜450 μL of the corresponding peptide in 20 mM sodium acetate-d3 buffer, pH 5.5, containing 10% D2O, of 1 μL (final CaCl2 concentration ˜0.22 mM), additional 2 μL (final CaCl2 concentration ˜0.66 mM), additional 10 μL (final CaCl2 concentration ˜2.8 mM) of 100 mM CaCl2, and additional 10 μL (final CaCl2 concentration ˜23.9 mM) of 1 M CaCl2. Panels e and f show changes in the proton NMR spectrum of a disulfide-linked peptide Bbs-Arg-(D-Pip)-Gly-Cys . . . […](SEQ. ID. No. 16) upon the addition to the initial volume of ˜450 μL of 1 μL (final CaCl2 concentration ˜0.22 mM), additional 2 μL (final CaCl2 concentration ˜0.66 mM) of 100 mM CaCl2, and additional 10 μL (final CaCl2 concentration ˜22.2 mM) of 1 M CaCl2.
An inhibitor with a linker known to bind specific metal ions will be affected by the presence of these ions in solution. Two peptides homologous to the calcium-binding loop of troponin C were designed and established that they bind calcium ions in solution. The peptides have the following sequences—Ac-[…]NH2 (P3230) (SEQ. ID. NO. 109) and Ac-[…]NH2 (P3231) (SEQ. ID. NO. 110). The peptides were synthesized, purified and their identity was confirmed as described in Example 1. They were tested for calcium binding by use of NMR. For this both freeze-dried peptides were reconstituted at a concentration of approximately 0.5 mM in 20 mM sodium acetate-d3 buffer, pH 5.5, containing 10% D2O. Proton spectra of the peptides were recorded at 800 MHz, 15° C., before and after addition of increasing amounts of 0.1 and 1 M stock solutions of CaCl2 in the same buffer. FIGS. 6a,b,c,d show changes in the proton NMR spectra of these two peptides upon the addition to the initial volume of ˜450 μL of 1 μL (final CaCl2 concentration ˜0.22 mM), additional 2 μL (final CaCl2 concentration ˜0.66 mM), additional 10 μL (final CaCl2 concentration ˜2.8 mM) of 100 mM CaCl2, and additional 10 μL (final CaCl2 concentration ˜23.9 mM) of 1 M CaCl2. The changes in the spectra confirm binding of calcium with affinity in mM range.
One of the two designed peptides was used to construct a calcium-responsive bivalent thrombin inhibitor. The disulfide-linked bivalent thrombin inhibitor (corresponding to SEQ. ID. NO. 91) prepared by cross-oxidation of cysteine thiol groups from two peptides Bbs-Arg-(D-Pip)-Gly-Cys (SEQ. ID. NO. 4) and […](SEQ. ID. NO. 114) (preparation described in Example 1) was tested for its ability to bind calcium and inhibit amidolytic reaction in the presence and absence of calcium. […]

For experiment [2], the target named is T1, thrombin (Homo sapiens, UniProt P00734). The following applies: subject of another patent application; read-out: KI for thrombin inhibition; cited from earlier work.
The target of another experiment is T2, CaCdc42 (R150K) (Candida albicans, UniProt P0CY33, R150K).
T2 construct: made in house; host or cells: E. coli BL21
Put plainly: Fluorescence titration of sNBD-labeled, GMPPCP-loaded CaCdc42 (R150K) with CRIB peptides. The format is binding. Here is the method:
In order to construct a bivalent peptide ligand for Candida Cdc42 (CaCdc42) (with a suitable linker) (FIG. 12), the binding affinities of component peptides derived from the CRIB domains of Candida Cla4 and Step 20 were determined. Residue K150 of the R150K CaCdc42 mutant was covalently modified with the fluorescent probe, sNBD (Molecular Probes, Eugene, Oreg.), essentially as described by Nomanbhoy and Cerione (Nomanbhoy, T. and Cerione, R. A., 1999, 15878-15884.). The stoichiometry of the fluorescent probe per protein molecule was estimated at 1.13, based on protein concentration determined with ε280nm=13,610 M^−1 cm^−1 (Gill, S. C. and von Hippel, P. H., 1989, 319-326), and using the absorbance of the sNBD moiety of ε463nm=22,000 M^−1 cm^−1. Interaction of the CRIB peptides with sNBD-labeled CaCdc42 was monitored using extrinsic fluorescence measurements with a Hitachi F-2500 fluorescence spectrophotometer. Samples of sNBD-labeled, activated CaCdc42 were added in the assay buffer (50 mM phosphate, pH 6.8, 50 mM NaCl and 5 mM MgCl2) to a cuvette being continuously stirred. The protein concentration was 1 μM. Individual CRIB peptide dissolved in the same assay buffer was added drop-wise to the cuvette. The mixture was excited at 488 nm with an excitation slit width of 5 nm. The emission spectra were scanned from 510 nm to 590 nm. The fluorescence emission intensity at the emission maximum 545 nm was determined from each spectrum and the final value was obtained by averaging the values from five scans of the same sample. […]
The Kd values for the binding of the CRIB peptides to sNBD-labeled activated CaCdc42 were determined by fitting the fluorescence titration data to a simple bimolecular association model as described by Leonard et al (Leonard, D. A., and others, 1997, 1173-1180). […]
[formula] The fluorescence intensity (F) is related to the dissociation constant, Kd as follows,
[formula] where F0 and Ft are the fluorescence intensities at the starting and end points of the titration, respectively. […] Average Kd values were determined from multiple independent measurements.

The target in experiment [3] is T1, thrombin. The experiment can be described thus: Fibrinogen clotting assay catalyzed by thrombin. It counts as biochemical. The following applies: IC50, nM (37° C.), 37° C.; concentration needed to double the clotting time.
The target of experiment [4] is T1, thrombin. Put plainly: Kinetic amidolytic assay with chromogenic substrate S-2238 (inhibition constants). The format is biochemical. The following applies: 25° C., S-2238, clotting buffer; read-out: KI, nM (25° C.). Here is the method: Peptides were freeze-dried and their identity was confirmed by ion-spray mass spectrometry. Clotting assays were carried out by use of the protocols described previously (DiMaio and others, 1990, 21698-21703; Witting and others, 1992, 737-743). The assay employs bovine plasma fibrinogen dissolved at 0.1% in 50 mM Tris-Cl, 100 mM NaCl, 0.1% PEG-8000 at pH 7.6 (i.e. the clotting buffer). Each assay mixture contained a certain concentration of the peptide, and the reaction was started by the addition of human thrombin to a final concentration of 0.6-1.2 nM. Optical absorbance increase at 420 nm caused by fibrin clot formation was measured at 25° C. or 37° C. using the Spectramax plate reader. The onset clotting time was determined as an intersection of the baseline and the extrapolated linear portion of the OD change curve. The concentration of a peptide needed to double the clotting time was defined as IC50 (DiMaio and others, 1990, 21698-21703). Kinetic amidolytic curves were obtained in clotting buffer at 25° C. using eight inhibitor concentrations and three to five concentrations of the chromogenic substrate S-2238 (Chromogenix) (DiMaio and others, 1990, 21698-21703). Inhibition constants were extracted from Lineweaver-Burk equation by using weighted linear regression. Errors in Ki determination were estimated by using Monte-Carlo sampling with 1-3% variance of the experimental points. Peptide concentrations were determined spectrophotometrically using predicted extinction coefficients at 278 nm (Gill and von Hippel, 1989, 319-326).

The target in a further experiment is α-thrombin (Homo sapiens, UniProt P00734). The experiment can be described thus: Effect of calcium on inhibition of the amidolytic activity of thrombin (S-3266). It counts as biochemical. The arrangement: chromogenic substrate proteolysis by human α-thrombin. The conditions noted are these: 50 and 100 mM calcium, 0.6 nM thrombin, 25° C.

By Ki is commonly meant a dissociation constant, usually derived from enzyme kinetics or from competition with a known ligand. What is called Kd is a measure of binding affinity in units of concentration. A high value points to weaker binding. As a reminder, the IC50 is the concentration that gives 50% inhibition.

T2 sequence (P0CY33 1-178 R150K): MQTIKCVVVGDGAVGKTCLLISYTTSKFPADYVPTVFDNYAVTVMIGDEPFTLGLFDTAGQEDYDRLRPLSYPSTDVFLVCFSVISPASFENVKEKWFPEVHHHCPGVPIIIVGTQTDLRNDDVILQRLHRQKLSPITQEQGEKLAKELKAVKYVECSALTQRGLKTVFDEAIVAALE

In the case of DKNADGWIDNGEFE [P3230], the “Affinity of calcium binding” value in experiment [1] was “mM range”.
Regarding DKNADGWIDNGDFE [SEQ. ID. NO. 17], the “Affinity of calcium binding” value in experiment [1] is recorded as “millimolar range”.
As to “WDPRPQRHNDGDFEEIPEEYLQ [SEQ. ID. NO. 18]”, the inhibitory constant (Ki) at thrombin [2] was ~17 nM and 17 nM.
At CaCdc42 (R150K), “GGNSGFPGPINFTHKVHVGFDRKSLTIYAQVQKNFTGLPDTWKSLLQHSKIT [eCla4-SLAM, GGNSGFPGPINFTHKVHVGFDRKSLTIYAQVQKNFTGLPDTWKSLLQHSKIT]” came in with an equilibrium dissociation constant (Kd) of 127 ± 70 nM.
The molecule `CC[C@H](C)[C@H](NC(=O)[C@H](CCC(=O)O)NC(=O)[C@H](CCC(=O)O)NC(=O)[C@H](Cc1ccccc1)NC(=O)[C@H](CC(=O)O)NC(=O)CNC(=O)[C@H](CO)NC(=O)CNC(=O)[C@H](CO)NC(=O)CNC(=O)[C@H](CO)NC(=O)CNC(=O)[C@H](CO)NC(=O)CNC(=O)[C@H]1CCCCN1C(=O)[C@H](CCCNC(=N)N)NS(=O)(=O)c1ccc(C(C)(C)C)cc1)C(=O)N1CCC[C@H]1C(=O)N[C@@H](CCC(=O)O)C(=O)N[C@@H](CCC(=O)O)C(=O)N[C@@H](Cc1ccc(O)cc1)C(=O)N[C@@H](CC(C)C)C(=O)N[C@@H](CCC(N)=O)C(=O)O` [P3150] returned an IC50 against thrombin [3] of 0.5 ± 0.1 nM. On thrombin [4], the Ki turned out to be 0.5 ± 0.2 nM. Also, on α-thrombin, the “Effect of calcium on inhibition potency” value is “no visible effect”.
In turn, “EVNIKISTPFNAKHLAHVGIDDNGNFTGLPDTWKSLLQHSKIT [mCst20-cCla4]” came in with an equilibrium dissociation constant (Kd) on CaCdc42 (R150K) of 2640 ± 200 nM.
Same read-out and setting: as for “EVNIKISTPFNAKHLAHVGIDDNGSYTGLPIEWERLLSASGIT [eCst20]”, the figure is 46 nM.
With “Bbs-Arg-(D-Pip)-Gly-Cys . . . Cys-Asp-Lys-Asn-Ala-Asp-Gly-Trp-Ile-Asp-Asn-Gly-Asp-Phe-Glu-Glu-Ile-Pro-Glu-Glu-Tyr-Leu-Gln (CDKNADGWIDNGDFEEIPEEYLQ; not fully specified (N-terminus); printed as Bbs-Arg-(D-Pip)-Gly-Cys . . . Cys-Asp-Lys-Asn-Ala-Asp-Gly-Trp-Ile-Asp-Asn-Gly-Asp-Phe-Glu-Glu-Ile-Pro-Glu-Glu-Tyr-Leu-Gln; also: N-terminal part Bbs-Arg-(D-Pip)-Gly-Cys . . . precedes Cys1, intervening residues not given here) [3243-3255]”, in experiment [1], the “Affinity of calcium binding” value is “mM range”. The “Effect of calcium on inhibition potency” value is given as “altered inhibition” with α-thrombin (listed as SEQ. ID. NO. 91) and “decreased” with α-thrombin (listed as calcium-responsive disulfide-linked bivalent thrombin inhibitor).
In turn, `CC[C@H](C)[C@H](NC(=O)[C@H](CCC(=O)O)NC(=O)[C@H](CCC(=O)O)NC(=O)[C@H](Cc1ccccc1)NC(=O)[C@H](CC(=O)O)NC(=O)CNC(=O)[C@H](CO)NC(=O)CNC(=O)[C@H](CO)NC(=O)CNC(=O)[C@H](CO)NC(=O)CNC(=O)[C@H](CO)NC(=O)CNC(=O)[C@H](CO)NC(=O)CNC(=O)[C@H](CO)NC(=O)CNC(=O)[C@H](CO)NC(=O)CNC(=O)[C@H](CO)NC(=O)CNC(=O)[C@H](CO)NC(=O)CNC(=O)[C@H](CO)NC(=O)CNC(=O)[C@H]1CCCCN1C(=O)[C@H](CCCNC(=N)N)NS(=O)(=O)c1ccc(C(C)(C)C)cc1)C(=O)N1CCC[C@H]1C(=O)N[C@@H](CCC(=O)O)C(=O)N[C@@H](CCC(=O)O)C(=O)N[C@@H](Cc1ccc(O)cc1)C(=O)N[C@@H](CC(C)C)C(=O)N[C@@H](CCC(N)=O)C(=O)O` [P3153] registered a half-inhibitory concentration (IC50) at thrombin [3] of 1 ± 0.1 nM. Further, on thrombin [4], the Ki turned out to be 2 ± 0.3 nM.
Turning to DKNADGWIDNGDFE [P3231], in experiment [1], the “Affinity of calcium binding” value is recorded as “mM range”.
`CC[C@H](C)[C@H](NC(=O)[C@H](CCC(=O)O)NC(=O)[C@H](CCC(=O)O)NC(=O)[C@H](Cc1ccccc1)NC(=O)[C@H](CC(=O)O)NC(=O)CNC(=O)[C@H](CO)NC(=O)CNC(=O)[C@H](CO)NC(=O)CNC(=O)[C@H](CO)NC(=O)CNC(=O)[C@H](CO)NC(=O)CNC(=O)[C@H](CO)NC(=O)CNC(=O)[C@H](CO)NC(=O)CNC(=O)[C@H]1CCCCN1C(=O)[C@H](CCCNC(=N)N)NS(=O)(=O)c1ccc(C(C)(C)C)cc1)C(=O)N1CCC[C@H]1C(=O)N[C@@H](CCC(=O)O)C(=O)N[C@@H](CCC(=O)O)C(=O)N[C@@H](Cc1ccc(O)cc1)C(=O)N[C@@H](CC(C)C)C(=O)N[C@@H](CCC(N)=O)C(=O)O` [P3151]: at thrombin [3], the half-inhibitory concentration (IC50) turned out to be 0.5 ± 0.1 nM. Besides, the Ki on thrombin [4] is 0.6 ± 0.1 nM.
